According to patent publication US20200024278A1, “COMPOSITION COMPRISING ANTIBIOTIC COMPOUND AND AN HETEROCYCLIC COMPOUND AND THEIR USE IN PREVENTING OR TREATING BACTERIAL INFECTIONS” (MUTABILIS, priority 2016, published 2020):

Experiments:
Assay in all cases: MIC, broth microdilution (CLSI), substance alone or ATB combined with compound at 4 or 8 μg/mL
PAE 105250 = type: cell-based, P. aeruginosa; conditions: PAE 105250
Method: (§1) Compounds of the present invention were assessed against genotyped bacterial strains alone or in combination with an antibacterial. In the assays, MICs of said compounds or combination of antibiotics with fixed concentrations of said compounds (4 or 8 μg/mL) were determined by the broth microdilution method according to the Clinical Laboratory Standards Institute (CLSI-M7-A7). Briefly, compounds alone according to the invention were prepared in DMSO and spotted (2 μL each) on sterile polystyrene plates (Corning, 3788). Combinations of compounds and antibiotics dilutions were prepared in DMSO and spotted (1 μL each) on sterile polystyrene plates (Corning, 3788). Log phase bacterial suspensions were adjusted to a final density of 5·10^5 CFU/mL in cation-adjusted Mueller-Hinton broth (ca-MHB; Becton-Dickinson and Company) and added to each well (98 μL). Assays including Fosfomycin were supplemented with 25 μg/ml of Glucose-6-phosphate. Microplates were incubated for 16-20 h at 35° C. in ambient air. The MIC of the compounds was defined as the lowest concentration of said compounds that prevented bacterial growth as read by visual inspection. The MIC of ATB at each compound concentration was defined as the lowest concentration of ATB that prevented bacterial growth as read by visual inspection.

PAE UFR48 = type: cell-based, P. aeruginosa; conditions: PAE UFR48
Method: as §1

PAE UFR90 = type: cell-based, P. aeruginosa; conditions: PAE UFR90
Method: as §1

ECO UFR39 = type: cell-based, E. coli; conditions: ECO UFR39; with Example 13 at 8 μg/ml
Method: as §1

ECO 190317 = type: cell-based, E. coli; conditions: ECO 190317
Method: as §1

ECL P99 = type: cell-based, E. cloacae; conditions: ECL P99
Method: as §1

SPN 49619 = type: cell-based, S. pneumoniae; conditions: SPN 49619
Method: as §1

SAU 29213 = type: cell-based, S. aureus; conditions: SAU 29213
Method: as §1

CO/N=C(\C(=O)N[C@@H]1C(=O)N2C(C(=O)O)=C(CSc3nc(=O)c(O)nn3C)CS[C@H]12)c1csc(N)n1 [CTR]
>32 µg/mL: MIC ATB combined with Example 12 @8 μg/ml (PAE 105250; with Example 12 at 8 μg/ml) | MIC ATB combined with Example 14 @8 μg/ml (PAE 105250; with Example 14 at 8 μg/ml) | MIC ATB combined with Example 16 @4 μg/ml (PAE 105250; with Example 16 at 4 μg/ml) | MIC ATB combined with Example 7 @8 μgml (PAE UFR48; with Example 7 at 8 μg/ml) | MIC ATB combined with Example 11 @8 μg/ml (PAE UFR48; with Example 11 at 8 μg/ml) | MIC ATB combined with Example 12 @8 μg/ml (PAE UFR48; with Example 12 at 8 μg/ml) | MIC ATB combined with Example 15 @4 μgml (PAE UFR48; with Example 15 at 4 μg/ml) | MIC ATB combined with Example 16 @4 μg/ml (PAE UFR48; with Example 16 at 4 μg/ml) | MIC ATB combined with Example 7 @8 μgml (PAE UFR90; with Example 7 at 8 μg/ml) | MIC ATB combined with Example 12 @8 μg/ml (PAE UFR90; with Example 12 at 8 μg/ml) | MIC ATB combined with Example 14 @8 μg/ml (PAE UFR90; with Example 14 at 8 μg/ml) | MIC ATB combined with Example 16 @4 μg/ml (PAE UFR90; with Example 16 at 4 μg/ml)
<=0.031 μg/mL: MIC ATB combined with Example 9 @4 μg/ml (SPN 49619; with Example 9 @4 μg/ml) | MIC ATB combined with Example 9 @4 μg/ml (SPN 49619; with Example 9 at 4 μg/ml) | MIC ATB combined with Example 11 @8 μg/ml (SPN 49619; with Example 11 at 8 μg/ml) | MIC ATB combined with Example 13 @8 μg/ml (SPN 49619; with Example 13 at 8 μg/ml) | MIC ATB combined with Example 15 @4 μgml (SPN 49619; with Example 15 at 4 μg/ml) | MIC ATB combined with Example 11 @8 μg/ml (SAU 29213; with Example 11 at 8 μg/ml)
32 µg/mL: MIC ATB combined with Example 11 @8 μg/ml (PAE 105250; with Example 11 at 8 μg/ml) | MIC ATB combined with Example 15 @4 μgml (PAE 105250; with Example 15 at 4 μg/ml) | MIC ATB combined with Example 11 @8 μg/ml (PAE UFR90; with Example 11 at 8 μg/ml)
<0.031 µg/mL: MIC ATB combined with Example 1 @8 μg/ml (PAE 105250; with Example 1 @8 μg/ml) | MIC ATB combined with Example 1 @8 μg/ml (PAE 105250; with Example 1 at 8 μg/ml) | MIC ATB combined with Example 1 @8 μg/ml (PAE UFR48; with Example 1 @8 μg/ml) | MIC ATB combined with Example 1 @8 μg/ml (PAE UFR48; with Example 1 at 8 μg/ml) | MIC ATB combined with Example 1 @8 μg/ml (PAE UFR90; with Example 1 @8 μg/ml) | MIC ATB combined with Example 1 @8 μg/ml (PAE UFR90; with Example 1 at 8 μg/ml) | MIC ATB combined with Example 13 @8 μg/ml (ECO UFR39) | MIC ATB combined with Example 1 @8 μg/ml (ECO 190317; with Example 1 @8 μg/ml) | MIC ATB combined with Example 1 @8 μg/ml (ECO 190317; with Example 1 at 8 μg/ml) | MIC ATB combined with Example 13 @8 μg/ml (ECO 190317; with Example 13 at 8 μg/ml) | MIC ATB combined with Example 1 @8 μg/ml (ECL P99; with Example 1 @8 μg/ml) | MIC ATB combined with Example 1 @8 μg/ml (ECL P99; with Example 1 at 8 μg/ml)
1 µg/mL: MIC ATB combined with Example 13 @8 μg/ml (ECL P99; with Example 13 at 8 μg/ml)
2 µg/mL: MIC ATB combined with Example 7 @8 μgml (ECL P99; with Example 7 at 8 μg/ml) | MIC ATB combined with Example 7 @8 μgml (SAU 29213; with Example 7 at 8 μg/ml)
4 µg/mL: MIC ATB combined with Example 1 @8 μg/ml (SAU 29213; with Example 1 @8 μg/ml) | MIC ATB combined with Example 1 @8 μg/ml (SAU 29213; with Example 1 at 8 μg/ml) | MIC ATB combined with Example 13 @8 μg/ml (SAU 29213; with Example 13 at 8 μg/ml)
8 µg/mL: MIC ATB alone (SAU 29213; antibiotic alone)
0.063 µg/mL: MIC ATB combined with Example 7 @8 μgml (SPN 49619; with Example 7 at 8 μg/ml)
